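48-hour exposure; five concentrations; linearly interpolated endpoints. TGI denotes the concentration required for complete inhibition of growth.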

For one assay, the system named is MALME-3M melanoma. Briefly: inhibition of tumour cell growth, NCI panel, 48 h.
With `C=CC[C@]12C[C@@H](C(=O)OC)N(C(=O)OC)[C@H]1N(S(=O)(=O)c1ccccc1)c1ccccc12`, the TGI was > 100 µM.

Consider `C=CCSc1nc2ccccc2c(=O)n1Cc1ccco1`, for which the TGI is > 100 µM.

The test system of a further assay is SF-268 CNS. The experiment in a line: inhibition of tumour cell growth, NCI panel, 48 h.
In the case of `CCOc1cc(C2CC(c3ccc(NS(=O)(=O)c4cc([N+](=O)[O-])ccc4C)cc3)=NN2C(=O)c2ccccc2)ccc1O` (stereo unspecified), the TGI was > 100 µM.

As for `CC(C)/C(Cl)=N\OC(=O)Nc1ccc(C#N)cc1`, the TGI is 36.7 µM.

For `C=CC[C@]12C[C@@H](C(=O)OC)N(C(=O)OC)[C@H]1N(S(=O)(=O)c1ccccc1)c1ccccc12`, the TGI was > 100 µM.

`C=CCSc1nc2ccccc2c(=O)n1Cc1ccco1`: the TGI is > 100 µM.

Another assay concerns ACHN renal. The experiment in a line: inhibition of tumour cell growth, NCI panel, 48 h.
In turn, `CCOc1cc(C2CC(c3ccc(NS(=O)(=O)c4cc([N+](=O)[O-])ccc4C)cc3)=NN2C(=O)c2ccccc2)ccc1O` (stereo unspecified) yielded a TGI of 85.3 µM.

Take `CC(C)/C(Cl)=N\OC(=O)Nc1ccc(C#N)cc1`: the TGI came to 19 µM.

In the case of `C=CC[C@]12C[C@@H](C(=O)OC)N(C(=O)OC)[C@H]1N(S(=O)(=O)c1ccccc1)c1ccccc12`, the TGI was > 100 µM.

For `C=CCSc1nc2ccccc2c(=O)n1Cc1ccco1`, the TGI was > 100 µM.

For the next assay, the system named is SN12C renal. The experiment in a line: inhibition of tumour cell growth, NCI panel, 48 h.
In the case of `CCOc1cc(C2CC(c3ccc(NS(=O)(=O)c4cc([N+](=O)[O-])ccc4C)cc3)=NN2C(=O)c2ccccc2)ccc1O` (stereo unspecified), the TGI was 58.9 µM.

In turn, `CC(C)/C(Cl)=N\OC(=O)Nc1ccc(C#N)cc1` yielded a TGI of 26.6 µM.

For `C=CC[C@]12C[C@@H](C(=O)OC)N(C(=O)OC)[C@H]1N(S(=O)(=O)c1ccccc1)c1ccccc12`, the TGI was > 100 µM.

As for `C=CCSc1nc2ccccc2c(=O)n1Cc1ccco1`, the TGI is > 100 µM.

The test system of another assay is SK-MEL-5 melanoma. The experiment in a line: inhibition of tumour cell growth, NCI panel, 48 h.
Take `CCOc1cc(C2CC(c3ccc(NS(=O)(=O)c4cc([N+](=O)[O-])ccc4C)cc3)=NN2C(=O)c2ccccc2)ccc1O` (stereo unspecified): the TGI amounted to 37.8 µM.

For the molecule `CC(C)/C(Cl)=N\OC(=O)Nc1ccc(C#N)cc1`, the TGI came to 9.91 µM.

With `C=CC[C@]12C[C@@H](C(=O)OC)N(C(=O)OC)[C@H]1N(S(=O)(=O)c1ccccc1)c1ccccc12`, the TGI is > 100 µM.

As to `C=CCSc1nc2ccccc2c(=O)n1Cc1ccco1`, the TGI was > 100 µM.

For a further assay, the system named is UACC-62 melanoma. Briefly: inhibition of tumour cell growth, NCI panel, 48 h.
As for `CC(C)/C(Cl)=N\OC(=O)Nc1ccc(C#N)cc1`, the TGI came out at 31 µM.

Turning to `C=CCSc1nc2ccccc2c(=O)n1Cc1ccco1`, the TGI was > 100 µM.

A further assay relates to NCI-H460 lung. The experiment in a line: inhibition of tumour cell growth, NCI panel, 48 h.
For `CC(C)/C(Cl)=N\OC(=O)Nc1ccc(C#N)cc1`, the TGI was 33.4 µM.

Take `C=CC[C@]12C[C@@H](C(=O)OC)N(C(=O)OC)[C@H]1N(S(=O)(=O)c1ccccc1)c1ccccc12`: the TGI is > 100 µM.

For `C=CCSc1nc2ccccc2c(=O)n1Cc1ccco1`, the TGI was > 100 µM.

The subject of another assay is IGROV1 ovarian. The experiment in a line: inhibition of tumour cell growth, NCI panel, 48 h.
For `CCOc1cc(C2CC(c3ccc(NS(=O)(=O)c4cc([N+](=O)[O-])ccc4C)cc3)=NN2C(=O)c2ccccc2)ccc1O` (stereo unspecified), the TGI is > 100 µM.

Molecule `CC(C)/C(Cl)=N\OC(=O)Nc1ccc(C#N)cc1` had a TGI of 32.7 µM.

Take `C=CC[C@]12C[C@@H](C(=O)OC)N(C(=O)OC)[C@H]1N(S(=O)(=O)c1ccccc1)c1ccccc12`: the TGI was > 100 µM.

`C=CCSc1nc2ccccc2c(=O)n1Cc1ccco1`: the TGI was > 100 µM.

Another assay deals with LOX IMVI melanoma. The experiment in a line: inhibition of tumour cell growth, NCI panel, 48 h.
Regarding `CCOc1cc(C2CC(c3ccc(NS(=O)(=O)c4cc([N+](=O)[O-])ccc4C)cc3)=NN2C(=O)c2ccccc2)ccc1O` (stereo unspecified), the TGI was > 100 µM.

As to `CC(C)/C(Cl)=N\OC(=O)Nc1ccc(C#N)cc1`, the TGI was determined as 13.2 µM.

As for `C=CCSc1nc2ccccc2c(=O)n1Cc1ccco1`, the TGI is > 100 µM.

The next assay concerns PC-3 prostate. Briefly: inhibition of tumour cell growth, NCI panel, 48 h.
For `CCOc1cc(C2CC(c3ccc(NS(=O)(=O)c4cc([N+](=O)[O-])ccc4C)cc3)=NN2C(=O)c2ccccc2)ccc1O` (stereo unspecified), the TGI was > 100 µM.

In turn, `CC(C)/C(Cl)=N\OC(=O)Nc1ccc(C#N)cc1` returned a TGI of 30.1 µM.

Consider `C=CC[C@]12C[C@@H](C(=O)OC)N(C(=O)OC)[C@H]1N(S(=O)(=O)c1ccccc1)c1ccccc12`, for which the TGI was > 100 µM.

As for `C=CCSc1nc2ccccc2c(=O)n1Cc1ccco1`, the TGI was > 100 µM.

A further assay concerns NCI-H23 lung. Briefly: inhibition of tumour cell growth, NCI panel, 48 h.
In turn, `CCOc1cc(C2CC(c3ccc(NS(=O)(=O)c4cc([N+](=O)[O-])ccc4C)cc3)=NN2C(=O)c2ccccc2)ccc1O` (stereo unspecified) showed a TGI of 69 µM.

Molecule `CC(C)/C(Cl)=N\OC(=O)Nc1ccc(C#N)cc1` gave a TGI of 30 µM.

Turning to `C=CC[C@]12C[C@@H](C(=O)OC)N(C(=O)OC)[C@H]1N(S(=O)(=O)c1ccccc1)c1ccccc12`, the TGI is > 100 µM.

With `C=CCSc1nc2ccccc2c(=O)n1Cc1ccco1`, the TGI is > 100 µM.

The next assay deals with UO-31 renal. Briefly: inhibition of tumour cell growth, NCI panel, 48 h.
In the case of `CCOc1cc(C2CC(c3ccc(NS(=O)(=O)c4cc([N+](=O)[O-])ccc4C)cc3)=NN2C(=O)c2ccccc2)ccc1O` (stereo unspecified), the TGI is > 100 µM.

In turn, `CC(C)/C(Cl)=N\OC(=O)Nc1ccc(C#N)cc1` displayed a TGI of 21.2 µM.

Take `C=CC[C@]12C[C@@H](C(=O)OC)N(C(=O)OC)[C@H]1N(S(=O)(=O)c1ccccc1)c1ccccc12`: the TGI was > 100 µM.

`C=CCSc1nc2ccccc2c(=O)n1Cc1ccco1`: the TGI was > 100 µM.

The next assay relates to MOLT-4 leukemia. Briefly: inhibition of tumour cell growth, NCI panel, 48 h.
As to `CCOc1cc(C2CC(c3ccc(NS(=O)(=O)c4cc([N+](=O)[O-])ccc4C)cc3)=NN2C(=O)c2ccccc2)ccc1O` (stereo unspecified), the TGI was > 100 µM.

The molecule `CC(C)/C(Cl)=N\OC(=O)Nc1ccc(C#N)cc1` had a TGI of 5.41 µM.

Consider `C=CC[C@]12C[C@@H](C(=O)OC)N(C(=O)OC)[C@H]1N(S(=O)(=O)c1ccccc1)c1ccccc12`, for which the TGI is > 100 µM.

The test system of a further assay is SK-OV-3 ovarian. Briefly: inhibition of tumour cell growth, NCI panel, 48 h.
`CCOc1cc(C2CC(c3ccc(NS(=O)(=O)c4cc([N+](=O)[O-])ccc4C)cc3)=NN2C(=O)c2ccccc2)ccc1O` (stereo unspecified) registered a TGI of 54.5 µM.

Molecule `CC(C)/C(Cl)=N\OC(=O)Nc1ccc(C#N)cc1` returned a TGI of 31.1 µM.

As for `C=CC[C@]12C[C@@H](C(=O)OC)N(C(=O)OC)[C@H]1N(S(=O)(=O)c1ccccc1)c1ccccc12`, the TGI is > 100 µM.

On to `C=CCSc1nc2ccccc2c(=O)n1Cc1ccco1`, for which the TGI was > 100 µM.

For a further assay, the system named is SK-MEL-2 melanoma. The experiment in a line: inhibition of tumour cell growth, NCI panel, 48 h.
`CCOc1cc(C2CC(c3ccc(NS(=O)(=O)c4cc([N+](=O)[O-])ccc4C)cc3)=NN2C(=O)c2ccccc2)ccc1O` (stereo unspecified) showed a TGI of 30.9 µM.

Consider `CC(C)/C(Cl)=N\OC(=O)Nc1ccc(C#N)cc1`, for which the TGI stood at 25.6 µM.

Turning to `C=CC[C@]12C[C@@H](C(=O)OC)N(C(=O)OC)[C@H]1N(S(=O)(=O)c1ccccc1)c1ccccc12`, the TGI was > 100 µM.

Take `C=CCSc1nc2ccccc2c(=O)n1Cc1ccco1`: the TGI was > 100 µM.

The next assay has as its system SW-620 colon. Briefly: inhibition of tumour cell growth, NCI panel, 48 h.
`CCOc1cc(C2CC(c3ccc(NS(=O)(=O)c4cc([N+](=O)[O-])ccc4C)cc3)=NN2C(=O)c2ccccc2)ccc1O` (stereo unspecified): the TGI is > 100 µM.

With `CC(C)/C(Cl)=N\OC(=O)Nc1ccc(C#N)cc1`, the TGI stood at 3.36 µM.

Turning to `C=CC[C@]12C[C@@H](C(=O)OC)N(C(=O)OC)[C@H]1N(S(=O)(=O)c1ccccc1)c1ccccc12`, the TGI was > 100 µM.

Source of the values: PubChem BioAssay (NCI).
